# Measurements from patent US7960376B2, “Benzo-fused heterocycles” (priority 2007, dated 2011).
# Legend:
# [1] = target: human CB2 receptor (hCB2) (Homo sapiens, UniProt P34972); test: cell-based; format: cell-based; conditions: intracellular cAMP, CHO-K1 cells, NKH-477 prestimulated; + agonist, − inverse agonist
# rat CB2 receptor (rCB2) = target: T1, rat CB2 receptor (rCB2) (Rattus norvegicus, UniProt Q9QZN9); test: cell-based; format: cell-based; conditions: intracellular cAMP, CHO-K1 cells, NKH-477 prestimulated; + agonist, − inverse agonist
# T1 sequence (Q9QZN9 1-360): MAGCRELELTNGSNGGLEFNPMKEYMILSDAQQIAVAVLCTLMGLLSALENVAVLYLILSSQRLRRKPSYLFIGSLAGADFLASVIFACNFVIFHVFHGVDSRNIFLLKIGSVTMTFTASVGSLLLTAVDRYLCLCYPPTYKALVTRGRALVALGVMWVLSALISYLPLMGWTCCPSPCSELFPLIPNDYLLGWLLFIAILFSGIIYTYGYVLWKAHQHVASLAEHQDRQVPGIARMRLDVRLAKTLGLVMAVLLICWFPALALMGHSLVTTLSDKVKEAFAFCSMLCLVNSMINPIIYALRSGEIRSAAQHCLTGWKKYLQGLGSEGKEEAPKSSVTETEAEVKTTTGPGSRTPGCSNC
# human CB2 receptor (hCB2), sequence (P34972 whole entry): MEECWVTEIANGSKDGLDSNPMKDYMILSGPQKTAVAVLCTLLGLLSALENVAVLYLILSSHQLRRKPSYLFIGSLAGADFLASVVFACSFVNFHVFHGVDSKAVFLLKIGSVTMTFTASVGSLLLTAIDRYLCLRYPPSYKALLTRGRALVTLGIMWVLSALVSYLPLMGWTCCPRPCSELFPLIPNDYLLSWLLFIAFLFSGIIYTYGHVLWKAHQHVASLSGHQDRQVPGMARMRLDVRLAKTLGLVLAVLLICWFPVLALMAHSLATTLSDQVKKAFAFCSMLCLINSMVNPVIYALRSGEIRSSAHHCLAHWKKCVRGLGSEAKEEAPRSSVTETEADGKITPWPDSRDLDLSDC
SMILES,hCB2 EC50 range [1],rCB2 EC50 range (rat CB2 receptor (rCB2))
"CC(C)CNC(=O)c1ccc2c(c1)N(S(C)(=O)=O)CCS2 [Example 54, N-isobutyl-4-(methylsulfonyl)-3,4-dihydro-2H-benzo[b][1,4]thiazine-6-carboxamide]",+E,+D
"O=C(c1ccc2c(c1)N(S(=O)(=O)c1ccc(C(F)(F)F)cc1)CCS2)N1CCOCC1 [Example 76, morpholino(4-(4-(trifluoromethyl)phenylsulfonyl)-3,4-dihydro-2H-benzo[b][1,4]thiazin-6-yl)methanone]",+D,+C
CCc1noc(-c2ccc3c(c2)N(S(=O)(=O)c2ccccc2)CCS3)n1 [Example 86],+B,+A
"COc1ccc(C(=O)N2CCSc3ccc(C(=O)NC(C)C)cc32)cc1 [Example 30, N-isopropyl-4-(4-methoxybenzoyl)-3,4-dihydro-2H-benzo[b][1,4]thiazine-6-carboxamide]",−E,−E
"CN(C)C(=O)c1ccc2c(c1)N(S(=O)(=O)c1ccc(F)cc1)CCS2 [Example 69, 4-(4-fluorophenylsulfonyl)-N,N-dimethyl-3,4-dihydro-2H-benzo[b][1,4]thiazine-6-carboxamide]",+E,+D
COCCCNC(=O)c1ccc2c(c1)N(C(=O)c1ccc(Cl)cc1)CCS2 [Example 19],−E,−E
CC(C)NC(=O)c1ccc2c(c1)N(C(=O)c1ccc(Cl)cc1)CCS2 [Example 29],+D,+D
O=C(c1ccc2c(c1)N(S(=O)(=O)c1ccccc1)CCS2)N1CCOCC1 [Example 68],+D,+D
"COCCCNC(=O)c1ccc2c(c1)N(S(C)(=O)=O)CCS2 [Example 56, N-(3-methoxypropyl)-4-(methylsulfonyl)-3,4-dihydro-2H-benzo[b][1,4]thiazine-6-carboxamide]",,+E
"CC(C)NC(=O)c1ccc2c(c1)N(S(=O)(=O)c1ccccc1)CCS2 [Example 52, N-isopropyl-4-(phenylsulfonyl)-3,4-dihydro-2H-benzo[b][1,4]thiazine-6-carboxamide]",+C,+A
"CC(C)(C)NC(=O)c1ccc2c(c1)N(C(=O)c1ccc(Cl)cc1)CCS2 [Example 10, N-tert-butyl-4-(4-chlorobenzoyl)-3,4-dihydro-2H-benzo[b][1,4]thiazine-6-carboxamide]",+D,+D
"CC(C)CNC(=O)c1ccc2c(c1)N(S(=O)(=O)c1ccccc1)CCS2 [Example 41, N-isobutyl-4-(phenylsulfonyl)-3,4-dihydro-2H-benzo-[b][1,4]thiazine-6-carboxamide]",+C,+A
"O=S(=O)(c1ccc(C(F)(F)F)cc1)N1CCSc2ccc(-c3nc(-c4cccc(C(F)(F)F)c4)no3)cc21 [Example 80, 3-(3-(trifluoromethyl)phenyl)-5-(4-(4-(trifluoromethyl)phenylsulfonyl)-3,4-dihydro-2H-benzo[b][1,4]thiazin-6-yl)-1,2,4-oxadiazole]",+D,
"CC(C)NC(=O)c1ccc2c(c1)N(C(=O)c1ccccc1)CCS2 [Example 26, 4-benzoyl-N-isopropyl-3,4-dihydro-2H-benzo[b][1,4]thiazine-6-carboxamide]",,−E
"COc1ccc(C(=O)N2CCSc3ccc(C(=O)NC4CCCC4)cc32)cc1 [Example 11, N-cyclopentyl-4-(4-methoxybenzoyl)-3,4-dihydro-2H-benzo[b] [1,4]thiazine-6-carboxamide]",−E,−D
"CC(C)C(=O)N1CCSc2ccc(C(=O)NC(C)(C)C)cc21 [Example 34, N-tert-butyl-4-isobutyryl-3,4-dihydro-2H-benzo[b][1,4]thiazine-6-carboxamide]",+D,+D
"CCC(=O)N1CCSc2ccc(C(=O)NC(C)(C)C)cc21 [Example 33, N-tert-butyl-4-propionyl-3,4-dihydro-2H-benzo[b][1,4]thiazine-6-carboxamide]",+D,
"COCCCNC(=O)c1ccc2c(c1)N(C(=O)C(C)C)CCS2 [Example 38, 4-isobutyryl-N-(3-methoxypropyl)-3,4-dihydro-2H-benzo[b][1,4]thiazine-6-carboxamide]",,−E
COCCCNC(=O)c1ccc2c(c1)N(C(=O)c1ccc(OC)cc1)CCS2 [Example 20],−E,

SMILES,hCB2 EC50 range [1],rCB2 EC50 range (rat CB2 receptor (rCB2))
"O=C(NC1CCCC1)c1ccc2c(c1)N(S(=O)(=O)c1ccccc1)CCS2 [Example 44, N-cyclopentyl-4-(phenylsulfonyl)-3,4-dihydro-2H-benzo[b][1,4]thiazine-6-carboxamide]",+C,+B
"O=C(NNC(=O)c1ccc2c(c1)N(S(=O)(=O)c1ccc(F)cc1)CCS2)c1ccccc1 [Example 78, N′-benzoyl-4-(4-fluorophenylsulfonyl)-3,4-dihydro-2H-benzo[b][1,4]thiazine-6-carbohydrazide]",+E,+D
"CCN(CC)C(=O)c1ccc2c(c1)N(S(=O)(=O)c1ccccc1)CCS2 [Example 65, N,N-diethyl-4-(phenylsulfonyl)-3,4-dihydro-2H-benzo[b][1,4]thiazine-6-carboxamide]",+C,+C
"O=C(c1ccc2c(c1)N(S(=O)(=O)c1ccccc1)CCS2)N1CCCCC1 [Example 67, (4-(phenylsulfonyl)-3,4-dihydro-2H-benzo[b][1,4]thiazin-6-yl)(piperidin-1-yl)methanone]",+D,+C
"O=C(c1ccc2c(c1)N(S(=O)(=O)c1ccccc1)CCS2)N1CCCC1 [Example 66, (4-(phenylsulfonyl)-3,4-dihydro-2H-benzo[b][1,4]thiazin-6-yl)(pyrrolidin-1-yl)methanone]",+D,+D
"CC(C)(C)NC(=O)c1ccc2c(c1)N(S(=O)(=O)c1ccccc1)CCS2 [Example 46, N-tert-butyl-4-(phenylsulfonyl)-3,4-dihydro-2H-benzo[b][1,4]thiazine-6-carboxamide]",+B,+B
"COCCCNC(=O)c1ccc2c(c1)N(C(=O)c1ccccc1)CCS2 [Example 16, 4-benzoyl-N-(3-methoxypropyl)-3,4-dihydro-2H-benzo[b][1,4]thiazine-6-carboxamide]",−E,−D
"O=C(c1ccc2c(c1)N(S(=O)(=O)c1ccc(C(F)(F)F)cc1)CCS2)N1CCCCC1 [Example 75, piperidin-1-yl(4-(4-(trifluoromethyl)phenylsulfonyl)-3,4-dihydro-2H-benzo[b][1,4]thiazin-6-yl)methanone]",,−C
"CC(C)CNC(=O)c1ccc2c(c1)N(S(=O)(=O)c1ccccc1)CCO2 [Example 59, N-isobutyl-4-(phenylsulfonyl)-3,4-dihydro-2H-benzo [b][1,4]oxazine-6-carboxamide]",+C,+C
"CC(C)(C)NC(=O)c1ccc2c(c1)N(C(=O)c1ccccc1)CCS2 [Example 9, 4-benzoyl-N-tert-butyl-3,4-dihydro-2H-benzo[b][1,4]thiazine-6-carboxamide]",,−D
"CC(=O)N1CCSc2ccc(C(=O)NC(C)(C)C)cc21 [Example 32, 4-acetyl-N-tert-butyl-3,4-dihydro-2H-benzo[b][1,4]thiazine-6-carboxamide]",,−E
"CC(C)NC(=O)c1ccc2c(c1)N(S(C)(=O)=O)CCS2 [Example 57, N-isopropyl-4-(methylsulfonyl)-3,4-dihydro-2H-benzo[b][1,4]thiazine-6-carboxamide]",+E,+D
"O=C(NC1CCCC1)c1ccc2c(c1)N(C(=O)c1ccc(Cl)cc1)CCS2 [Example 15, N-cyclopentyl-4-(4-chlorobenzoyl)-3,4-dihydro-2H-benzo[b] [1,4]thiazine-6-carboxamide]",,−E
"CC(C)C(=O)N1CCSc2ccc(C(=O)NC3CCCC3)cc21 [Example 37, N-cyclopentyl-4-isobutyryl-3,4-dihydro-2H-benzo[b][1,4]thiazine-6-carboxamide]",+E,−E
"CN(C)C(=O)c1ccc2c(c1)N(S(=O)(=O)c1ccc(C(F)(F)F)cc1)CCS2 [Example 72, N,N-dimethyl-4-(4-(trifluoromethyl)phenylsulfonyl)-3,4-dihydro-2H-benzo[b][1,4]thiazine-6-carboxamide]",+C,+C
"CS(=O)(=O)N1CCSc2ccc(C(=O)NC3CCCC3)cc21 [Example 55, N-cyclopentyl-4-(methylsulfonyl)-3,4-dihydro-2H-benzo[b][1,4]thiazine-6-carboxamide]",+E,+D
"CCC(=O)N1CCSc2ccc(C(=O)NC3CCCC3)cc21 [Example 36, N-cyclopentyl-4-propionyl-3,4-dihydro-2H-benzo[b][1,4]thiazine-6-carboxamide]",+E,−E
"CC1(C)CCN(S(=O)(=O)c2ccc(F)cc2)c2cc(C(=O)N3CCCC3)ccc2S1 [Example 102, (5-(4-fluorophenyl-sulfonyl)-2,2-dimethyl-2,3,4,5-tetrahydro-benzo[b][1,4]thiazepin-7-yl)(pyrrolidin-1-yl)-methanone]",,+C
COCCCNC(=O)c1ccc2c(c1)N(C(=O)c1ccc(F)cc1)CCS2 [Example 17],,−E
